# Results as given in patent US20240299384A1, “METHODS FOR TREATING PULMONARY HYPERTENSION IN PATIENTS WITH LEFT VENTRICULAR ASSIST DEVICE IMPLANTATION” (ACTELION PHARMACEUTICALS LTD, priority 2021, published 2024).
# Test system: patients with PH post-LVAD implantation
# Assay: Phase 2 study in PH post-LVAD implantation: adverse events (Safety Set)
# Type: in vivo
# Method: This is a double-blind, placebo-controlled, multicenter, parallel-group Phase 2 study assessing the efficacy and safety of macitentan in PH post-LVAD implantation. Approximately 57 adult patients with PH post-LVAD implantation were randomized (1:1) to receive either macitentan 10 mg, or matching placebo, once daily orally.
# • Treatment-emergent AEs up to 30 days after treatment discontinuation. • AEs leading to premature discontinuation of treatment. • Death up to 30 days after treatment discontinuation. • Treatment-emergent SAEs up to 30 days after treatment discontinuation. • Change from Baseline to EOT in vital signs. • Occurrence of liver function test (ALT and/or AST) abnormality (≥3×ULN; ≥3 and <5×ULN; ≥5 and <8×ULN; ≥8×ULN) up to EOT. • Occurrence of ALT and/or AST abnormality ≥3×ULN associated with bilirubin ≥2×ULN up to EOT. • Proportion of patients with treatment-emergent hemoglobin abnormality (<10.0 g/dL, and <8.0 g/dL) as compared to Baseline up to EOT. • Treatment-emergent marked laboratory abnormalities up to EOT.
# An AE is any adverse change, i.e., any unfavorable and unintended sign, including an abnormal laboratory finding, symptom, or disease that occurs in a patient. AEs include: • Exacerbation of a pre-existing disease. • Increase in frequency or intensity of a pre-existing episodic disease or medical condition. • Disease or medical condition detected or diagnosed even though it may have been present prior to the start of the treatment. • Continuous persistent disease or symptoms present at treatment start that worsen following the start. • Abnormal assessments, e.g., change on physical examination, ECG findings, if they represent a clinically significant finding that was not present at treatment start or worsened during the course of the treatment. • Laboratory test abnormalities if they represent a clinically significant finding, symptomatic or not, which was not present at treatment start or worsened during the course of the treatment or led to dose reduction, interruption or permanent discontinuation of treatment.
# A treatment-emergent AE is any AE temporally associated with the use of treatment (from treatment initiation until 30 days after treatment discontinuation). Overdose, misuse, and abuse of the treatment may be considered an AE.
# The intensity of clinical AEs is graded on a three-point scale-mild, moderate, severe. The three categories of intensity are defined as follows: • Mild: The event may be noticeable to the patient. […] Performance of daily activities may be influenced, and intervention may be needed. • Severe: The event may cause noticeable discomfort, and usually interferes with daily activities. The patient may not be able to continue, and treatment or intervention is usually needed.
# An SAE is defined by the ICH guidelines as any AE fulfilling at least one of the following criteria: • Fatal. • Life-threatening: refers to an event in which the patient was at risk of death at the time of the event.
# Safety Set (SS): The SS includes all patients receiving at least one dose of drug in the treatment period.
# A treatment-emergent AE is any AE temporally associated with the use of a treatment. The number and percentage of patients experiencing treatment-emergent AEs and SAEs at least once are tabulated by treatment group and by: • MedDRA SOC and individual preferred term within each SOC, in descending order of incidence. • Frequency of patients with events coded with the same preferred term, in descending order of incidence.
# [1] = AEs leading to treatment discontinuation, SS, N = 28
# [2] = SMQs for anemia, hypotension, edema/fluid retention, 10 mg once daily, N = 28
# [3] = frequently reported AEs, SS, N = 28
# [4] = treatment-emergent, 10 mg once daily, N = 28
structure (smiles),measurement,setting,value
"CCCNS(=O)(=O)Nc1ncnc(OCCOc2ncc(Br)cn2)c1-c1ccc(Br)cc1 [Macitentan, propylsulfamic acid [5-(4-bromo-phenyl)-6-[2-(5-bromo-pyrimidin-2-yloxy)-ethoxy]-pyrimidin-4-yl]-amide]","Any Treatment-Related Adverse Event Leading to Treatment Discontinuation, number of patients","10 mg once daily, N = 28",2
same,"Any Treatment-Related Adverse Event Leading to Treatment Discontinuation, percent of patients","10 mg once daily, N = 28",(7.1) %
same,"Acute kidney injury, number of patients",[1],1
same,"Acute kidney injury, percent of patients",[1],3.6%
same,"Anaemia, number of patients",[1],0
same,"Blood alkaline phosphatase increased, number of patients",[1],1
same,"Blood alkaline phosphatase increased, percent of patients",[1],3.6%
same,"Blood and lymphatic system disorders, number of patients",[1],0
same,"Blood bilirubin increased, number of patients",[1],1
same,"Blood bilirubin increased, percent of patients",[1],3.6%
same,"Cardiac disorders, number of patients",[1],1
same,"Cardiac disorders, percent of patients",[1],3.6%
same,"Cerebral haemorrhage, number of patients",[1],1
same,"Cerebral haemorrhage, percent of patients",[1],3.6%
same,"General disorders and administration site conditions, number of patients",[1],1
same,"General disorders and administration site conditions, percent of patients",[1],3.6%
same,"Haemolysis, number of patients",[1],0
same,"Haemorrhagic stroke, number of patients",[1],0
same,"International normalised ratio increased, number of patients",[1],1
same,"International normalised ratio increased, percent of patients",[1],3.6%
same,"Investigations, number of patients",[1],1
same,"Investigations, percent of patients",[1],3.6%
same,"Liver function test increased, number of patients",[1],1
same,"Liver function test increased, percent of patients",[1],3.6%
same,"Nervous system disorders, number of patients",[1],1
same,"Nervous system disorders, percent of patients",[1],3.6%
same,"Oedema peripheral, number of patients",[1],1
same,"Oedema peripheral, percent of patients",[1],3.6%
same,"Renal and urinary disorders, number of patients",[1],1
same,"Renal and urinary disorders, percent of patients",[1],3.6%
same,"Right ventricular failure, number of patients",[1],1
same,"Right ventricular failure, percent of patients",[1],3.6%
same,"Any Events of Interest, number of patients",[2],10
same,"Any Events of Interest, percent of patients",[2],(35.7) %
same,"Any Adverse Event Leading to Treatment Discontinuation, number of patients","SS, 10 mg once daily, N = 28",4
same,tolerability in words,"early post-LVAD population, 10 mg once daily",well tolerated
same,"Acute kidney injury, number of patients",[3],3
same,"Acute kidney injury, percent of patients",[3],(10.7) %
same,"Anticoagulation drug level below therapeutic, number of patients",[3],4
same,"Anticoagulation drug level below therapeutic, percent of patients",[3],(14.3) %
same,"Complication associated with device, number of patients",[3],0
same,"Cystatin C increased, number of patients",[3],3
same,"Cystatin C increased, percent of patients",[3],(10.7) %
same,"Dehydration, number of patients",[3],0
same,"Dizziness, number of patients",[3],4
same,"Dizziness, percent of patients",[3],(14.3) %
same,"Dyspnoea, number of patients",[3],4
same,"Dyspnoea, percent of patients",[3],(14.3) %
same,"Fall, number of patients",[3],0
same,"Fatigue, number of patients",[3],4
same,"Fatigue, percent of patients",[3],(14.3) %
same,"Hyperkalaemia, number of patients",[3],3
same,"Hyperkalaemia, percent of patients",[3],(10.7) %
same,"Hypotension, number of patients",[3],3
same,"Hypotension, percent of patients",[3],(10.7) %
same,"N-terminal prohormone brain natriuretic peptide increased, number of patients",[3],4
same,"N-terminal prohormone brain natriuretic peptide increased, percent of patients",[3],(14.3) %
same,"Oedema peripheral, number of patients",[3],4
same,"Oedema peripheral, percent of patients",[3],(14.3) %
same,"Ventricular tachycardia, number of patients",[3],1
same,"Ventricular tachycardia, percent of patients",[3],(3.6) %
same,"Vomiting, number of patients",[3],2
same,"Vomiting, percent of patients",[3],(7.1) %
same,safety profile in words,"post-LVAD implantation patients, 10 mg once daily",favorable safety profile
same,"Acute kidney injury, number of patients","serious AEs, N = 28",2
same,"Acute kidney injury, percent of patients","serious AEs, N = 28",(7.1) %
same,"Anticoagulation drug level below therapeutic level, number of patients","serious AEs, N = 28",3
same,"Anticoagulation drug level below therapeutic level, percent of patients","serious AEs, N = 28",(10.7) %
same,"Complication associated with device, number of patients","serious AEs, N = 28",0
same,"Dehydration, number of patients","serious AEs, N = 28",0
same,"Gastrointestinal hemorrhage, number of patients","serious AEs, N = 28",0
same,"Pleural effusion, number of patients","serious AEs, N = 28",2
same,"Pleural effusion, percent of patients","serious AEs, N = 28",(7.1) %
same,"Right ventricular failure, number of patients","serious AEs, N = 28",2
same,"Right ventricular failure, percent of patients","serious AEs, N = 28",(7.1) %
same,"Septic shock, number of patients","serious AEs, N = 28",2
same,"Septic shock, percent of patients","serious AEs, N = 28",(7.1) %
same,"Ventricular tachycardia, number of patients","serious AEs, N = 28",0
same,"Any Adverse Event With Outcome of Death, number of patients",[4],1
same,"Any Adverse Event With Outcome of Death, percent of patients",[4],(3.6) %
same,"Any Adverse Event, number of patients",[4],26
same,"Any Adverse Event, percent of patients",[4],(92.9) %
same,"Any Serious Adverse Event, number of patients",[4],16
same,"Any Serious Adverse Event, percent of patients",[4],(57.1) %
same,"Any Severe Adverse Event, number of patients",[4],9
same,"Any Severe Adverse Event, percent of patients",[4],(32.1) %
same,"Any Severe Treatment-Related Adverse Event, number of patients",[4],2
same,"Any Severe Treatment-Related Adverse Event, percent of patients",[4],(7.1) %
same,"Any Treatment-Related Adverse Event, number of patients",[4],6
same,"Any Treatment-Related Adverse Event, percent of patients",[4],(21.4) %
same,"Any Treatment-Related Serious Adverse Event, number of patients",[4],2
same,"Any Treatment-Related Serious Adverse Event, percent of patients",[4],(7.1) %
